Results as given in patent US20040127566A1, “Retinoid hepatitis therapy” (priority 2004, published 2004).

What was measured:
hepatitis-C = assay: Free ATRA (oral) in a patient positive for hepatitis-C (Example 2)
hepatitis-A = assay: Free ATRA (oral) in a patient positive for hepatitis-A (Example 3)
[1] = blood, one month subsequent to the 3-week point
[2] = four months after beginning use of ATRA
[3] = one month subsequent to the 3-week point

CC1=C(/C=C/C(C)=C/C=C/C(C)=C/C(=O)O)C(C)(C)CCC1 [free ATRA, all-trans retinoic acid]
viral load (hepatitis-C; [1]): < 11000 copies/ml | PCR status (hepatitis-C; [2]): negative | blood chemistry as to hepatitis C (SPGT and SGOT, bilirubin, alkaline phosphatase) (hepatitis-C; [3]): normal | viral load (hepatitis-A; [1]): < 1,000 copies/ml | PCR status (hepatitis-A; [2]): negative | blood chemistry as to hepatitis A (SPGT and SGOT, bilirubin, alkaline phosphatase) (hepatitis-A; [3]): normal
